According to US20100331297A1, “MODULATION OF PROTEIN TRAFFICKING” (FOLDRX PHARMACEUTICALS, INC., priority 2007, published 2010):

Experiments:
ΔF508 CFTR [1] = biological target: T1, ΔF508 CFTR (Homo sapiens, UniProt P13569, DEL508-508); assay: Potentiator activity, YFP halide (iodide) quenching assay in FRT cells expressing ΔF508 CFTR, 27° C. pre-incubation; assay type: cell-based; design: expressed in transfected cells; host or cells: Fischer rat thyroid (FRT) cells; conditions: FRT cells ΔF508 CFTR/YFP, 24 hours at 27° C., compound with forskolin 30 min
T1 sequence (P13569 with tags, fused parts or gaps DEL508-508): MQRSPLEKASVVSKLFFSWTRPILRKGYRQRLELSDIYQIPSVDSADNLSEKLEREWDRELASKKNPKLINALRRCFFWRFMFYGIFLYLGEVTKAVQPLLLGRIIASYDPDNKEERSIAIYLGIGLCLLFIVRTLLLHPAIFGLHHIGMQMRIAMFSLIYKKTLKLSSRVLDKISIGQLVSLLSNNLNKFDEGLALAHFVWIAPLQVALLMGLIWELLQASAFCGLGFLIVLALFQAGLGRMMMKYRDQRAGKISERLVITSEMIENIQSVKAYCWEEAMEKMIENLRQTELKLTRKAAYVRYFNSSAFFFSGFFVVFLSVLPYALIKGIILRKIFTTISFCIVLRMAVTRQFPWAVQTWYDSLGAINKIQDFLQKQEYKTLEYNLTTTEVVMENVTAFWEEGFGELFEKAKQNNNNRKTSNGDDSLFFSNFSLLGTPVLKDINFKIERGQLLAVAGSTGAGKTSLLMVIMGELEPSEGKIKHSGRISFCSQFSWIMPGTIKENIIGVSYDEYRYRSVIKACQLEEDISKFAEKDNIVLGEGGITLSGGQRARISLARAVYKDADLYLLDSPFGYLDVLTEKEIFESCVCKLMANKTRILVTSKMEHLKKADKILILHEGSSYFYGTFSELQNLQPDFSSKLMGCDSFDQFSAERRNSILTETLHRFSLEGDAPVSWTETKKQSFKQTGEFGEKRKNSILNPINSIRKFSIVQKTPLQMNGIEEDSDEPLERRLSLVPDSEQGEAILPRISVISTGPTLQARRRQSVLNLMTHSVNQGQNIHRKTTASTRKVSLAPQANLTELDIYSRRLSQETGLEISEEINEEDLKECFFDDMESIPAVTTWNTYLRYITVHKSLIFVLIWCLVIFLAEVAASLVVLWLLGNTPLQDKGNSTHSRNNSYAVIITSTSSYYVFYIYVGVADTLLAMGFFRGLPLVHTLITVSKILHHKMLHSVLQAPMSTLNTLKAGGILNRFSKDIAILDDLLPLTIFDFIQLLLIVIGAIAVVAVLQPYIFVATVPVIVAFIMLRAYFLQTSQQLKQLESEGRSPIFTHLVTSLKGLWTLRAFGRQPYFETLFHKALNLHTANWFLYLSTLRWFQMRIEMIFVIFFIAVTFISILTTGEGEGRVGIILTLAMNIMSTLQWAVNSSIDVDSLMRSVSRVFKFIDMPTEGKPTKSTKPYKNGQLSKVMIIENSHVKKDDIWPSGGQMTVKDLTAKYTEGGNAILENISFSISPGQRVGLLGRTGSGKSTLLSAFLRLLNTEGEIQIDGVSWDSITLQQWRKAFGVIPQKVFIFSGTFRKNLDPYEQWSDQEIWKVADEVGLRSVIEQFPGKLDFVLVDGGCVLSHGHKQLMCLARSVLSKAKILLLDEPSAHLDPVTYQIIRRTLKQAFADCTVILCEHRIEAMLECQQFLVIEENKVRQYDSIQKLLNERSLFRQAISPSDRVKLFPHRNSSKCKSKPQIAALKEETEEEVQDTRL
Experimental: Fisher rat thyroid (FRT) cells stably expressing ΔF508 CFTR and a halide-sensitive variant of yellow fluorescent protein (YFP) were seeded into microtiter plates and allowed to grow for 24 hours at 37° C. and 5% CO2, as described above. The medium was replaced with fresh medium and the cells were incubated for a further 24 hours at 27° C. and 5% CO2 to increase the level of mutant CFTR at the cell surface.
Compounds in DMSO solution were pre-diluted into phosphate-buffered saline solution (PBS) containing forskolin. Activity of CFTR was assayed by removing the medium, washing the cell monolayer with PBS, and then applying the compounds diluted in PBS containing forskolin. After 30 min of incubation at 37° C., the plates were placed in a fluorescence plate reader equipped with a reagent injector. After measuring an initial fluorescence value, iodide-containing buffer was injected and the decrease in fluorescence was followed at excitation and emission wavelengths of 485 and 530 nm, respectively.
Potentiator activity was calculated as follows. Normalized endpoint fluorescence was calculated by dividing the endpoint fluorescence after iodide injection by the initial fluorescence reading and multiplication by 100. Potentiator EC50 values were calculated by the same method as corrector EC50 values.

ΔF508 CFTR [2] = biological target: T1, ΔF508 CFTR; assay: Corrector activity, YFP halide (iodide) quenching assay in FRT cells expressing ΔF508 CFTR; assay type: cell-based; design: expressed in transfected cells; host or cells: Fischer rat thyroid (FRT) cells; conditions: FRT cells ΔF508 CFTR/YFP, 24 hours with compound at 37° C., forskolin and genistein; read-out: Corrector EC50
Experimental: Fisher rat thyroid (FRT) cells stably expressing ΔF508 CFTR and a halide-sensitive variant of yellow fluorescent protein (YFP) were seeded into microtiter plates and allowed to grow for 24 hours at 37° C. and 5% CO2. See Pedemonte et al., J. Clin. Invest. […] Compounds in dimethylsulfoxide (DMSO) solution were pre-diluted into cell culture medium, the medium was removed from cells, and then fresh medium containing the compounds was applied. The cells were incubated for a further 24 hours at 37° C. and 5% CO2.
Activity of CFTR was assayed by removing the medium, washing the cell monolayer with phosphate-buffered saline solution (PBS), and then applying PBS containing forskolin and genistein. After 30 min incubation at 37° C., the plates were placed in a fluorescence plate reader equipped with a reagent injector.
Corrector activity was calculated as follows. Normalized endpoint fluorescence was calculated by dividing the endpoint fluorescence after iodide injection by the initial fluorescence reading and multiplication by 100. Corrector EC50 values were calculated from the activity vs. concentration data using a 4-parameter log fit. The bottom of the curve was constrained to zero activity (DMSO control) while the slope, EC50, and top of the curve were fitted to the data. The EC50 was determined as the concentration that corresponds to the inflection point of the fitted curve.

Row | SMILES | EC50 (ΔF508 CFTR [1]) | EC50 (ΔF508 CFTR [2])
1 | CC(=O)N(C(C)=O)c1ncnc2c1c(-c1ccc(Cl)cc1)nn2C(C)(C)C [Compound No. 97] | 2 to 5 µM | 2 to 5 µM
2 | Nc1ncnc2[nH]nc(Oc3cccc(Cl)c3)c12 [Compound No. 220, 3-(3-Chloro-phenoxy)-1H-pyrazolo[3,4-d]pyrimidin-4-ylamine] | > 15 µM | > 15 µM
3 | Nc1ncnc2c1c(-c1ccc(Cl)cc1)cn2CC1CC1 [Compound No. 242, 5-(4-Chloro-phenyl)-7-cyclopropylmethyl-7H-pyrrolo[2,3-d]pyrimidin-4-ylamine] | 2 to 5 µM | < 2 µM
4 | CC(C)(C)n1cc(-c2ccc(Cl)cc2)c2c(N)ncnc21 [Compound No. 261, 7-tert-Butyl-5-(4-chloro-phenyl)-7H-pyrrolo[2,3-d]pyrimidin-4-ylamine] | < 2 µM | < 2 µM
5 | CC(C)(C)n1nc(-c2ccc(Cl)cc2)c2c(NS(C)(=O)=O)ncnc21 [Compound No. 274, N-[1-tert-Butyl-3-(4-chloro-phenyl)-1H-pyrazolo[3,4-d]pyrimidin-4-yl]-methanesulfonamide] | > 15 µM | 2 to 5 µM
6 | COC(=O)Nc1ncnc2c1c(-c1ccc(Cl)cc1)nn2C(C)(C)C [Compound No. 294, [1-tert-Butyl-3-(4-chloro-phenyl)-1H-pyrazolo[3,4-d]pyrimidin-4-yl]-carbamic acid methyl ester] | > 15 µM | > 15 µM
7 | CC(C)(C)n1nc(-c2ccc(Cl)cc2)c2c(NC(=O)O[C@H]3CCOC3)ncnc21 [Compound No. 301, [1-tert-Butyl-3-(4-chloro-phenyl)-1H-pyrazolo[3,4-d]pyrimidin-4-yl]-carbamic acid tetrahydro-furan-3-yl ester] | < 2 µM | 5 to 10 µM
8 | CC(C)N1CC(n2nc(-c3ccc(Cl)cc3)c3c(N)ncnc32)C1 [Compound No. 304, 3-(4-Chloro-phenyl)-1-(1-isopropyl-azetidin-3-yl)-1H-pyrazolo[3,4-d]pyrimidin-4-ylamine] | > 15 µM | 5 to 10 µM
9 | CCn1cc(-c2ccc(Cl)cc2)c2c(NS(C)(=O)=O)ncnc21 [Compound No. 305, N-[5-(4-Chloro-phenyl)-7-ethyl-7H-pyrrolo[2,3-d]pyrimidin-4-yl]-methanesulfonamide] | > 15 µM | > 15 µM
10 | CC(C)(C)n1nc(Oc2cccc(Cl)c2)c2c(NC(=O)c3ccccc3)ncnc21 [Compound No. 332, N-[1-tert-Butyl-3-(3-chloro-phenoxy)-1H-pyrazolo[3,4-d]pyrimidin-4-yl]-benzamide] | < 2 µM | > 15 µM
11 | CCn1cc(Sc2ccccc2)c2c(N)ncnc21 [Compound No. 333, 7-Ethyl-5-phenylsulfanyl-7H-pyrrolo[2,3-d]pyrimidin-4-ylamine] | < 2 µM | 2 to 5 µM
12 | CC(C)(C)n1cc(-c2ccc(Cl)cc2)c2c(NC(=O)C3CCC3)ncnc21 [compound 391] | – | 2 to 5 µM
13 | CC(C)(C)n1nc(-c2ccc(Cl)cc2)c2c(NC(=O)C3CCOC3)ncnc21 (centres unmarked) [compound 393] | – | 5 to 10 µM
14 | CC(C)C(=O)C(=O)Nc1ncnc2c1c(-c1ccc(Cl)cc1)nn2C(C)(C)C [compound 394] | – | > 15 µM
15 | CC(C)(C)n1nc(-c2ccc(Cl)cc2)c2c(NC(=O)C3CC3)ncnc21 [compound 396] | – | 5 to 10 µM
16 | CC(C)(C)n1nc(-c2ccc(Cl)cc2)c2c(NC(=O)N3CCCC3)ncnc21 [compound 398] | – | > 15 µM
17 | CC(C)(C)n1cc(-c2ccc(Cl)cc2)c2c(NC(=O)N3CCCC3)ncnc21 [compound 399] | – | > 15 µM
18 | CC(C)(C)n1nc(Oc2cccc(Cl)c2)c2c(NC(=O)N3CCCC3)ncnc21 [compound 400] | – | > 15 µM
19 | CCn1c(C)c(-c2ccc(Cl)cc2)c2c(N)ncnc21 [compound 401] | – | 2 to 5 µM
20 | Nc1ncnc2c1c(Oc1cccc(Cl)c1)nn2C1CNC1 [compound 414] | – | > 15 µM
21 | Nc1ncnc2c1c(Sc1cccc(Cl)c1)nn2C1CNC1 [compound 415] | – | > 15 µM
22 | CC(C)(C)n1nc(Br)c2c(NC(=O)c3ccccc3)ncnc21 [compound 421] | – | 2 to 5 µM
23 | CC(C)(C)C(=O)Nc1ncnc2c1c(Br)nn2C(C)(C)C [compound 422] | – | 2 to 5 µM
24 | CC(C)C(=O)Nc1ncnc2c1c(Br)nn2C(C)(C)C [compound 423] | – | < 2 µM
25 | CC(C)(C)n1nc(Br)c2c(N(C(=O)c3ccccc3)C(=O)c3ccccc3)ncnc21 [compound 425] | – | 2 to 5 µM
26 | CC(C)C(=O)N(C(=O)C(C)C)c1ncnc2c1c(Br)nn2C(C)(C)C [compound 426] | – | 5 to 10 µM

Other lines, results leading:

Row | EC50 (ΔF508 CFTR [1]) | EC50 (ΔF508 CFTR [2]) | SMILES
27 | 2 to 5 µM | > 15 µM | CC(C)(C)OC(=O)N1CC(n2nc(-c3ccc(Cl)cc3)c3c(N)ncnc32)C1 [Compound No. 267, 3-[4-Amino-3-(4-chloro-phenyl)-pyrazolo[3,4-d]pyrimidin-1-yl]-azetidine-1-carboxylic acid tert-butyl ester]
28 | > 15 µM | > 15 µM | CCNC(=O)N1CC(n2nc(-c3ccc(Cl)cc3)c3c(N)ncnc32)C1 [Compound No. 275, 3-[4-Amino-3-(4-chloro-phenyl)-pyrazolo[3,4-d]pyrimidin-1-yl]azetidine-1-carboxylic acid ethylamide]
29 | > 15 µM | > 15 µM | CC(=O)N1CC(n2nc(-c3ccc(Cl)cc3)c3c(N)ncnc32)C1 [Compound No. 295, 1-{3-[4-Amino-3-(4-chloro-phenyl)-pyrazolo[3,4-d]pyrimidin-1-yl]-azetidin-1-yl}-ethanone]
30 | > 15 µM | > 15 µM | CN1CC(n2nc(-c3ccc(Cl)cc3)c3c(N)ncnc32)C1 [Compound No. 296, 3-(4-Chloro-phenyl)-1-(1-methyl-azetidin-3-yl)-1H-pyrazolo[3,4-d]pyrimidin-4-ylamine]
31 | 2 to 5 µM | > 15 µM | CC(C)(C)OC(=O)N1CC(n2nc(Cc3cccc4ccccc34)c3c(N)ncnc32)C1 [Compound No. 297, 3-(4-Amino-3-naphthalen-1-ylmethyl-pyrazolo[3,4-d]pyrimidin-1-yl)-azetidine-1-carboxylic acid tert-butyl ester]
32 | 2 to 5 µM | > 15 µM | CC(C)(C)OC(=O)N1CC(n2nc(Sc3ccccc3)c3c(N)ncnc32)C1 [Compound No. 320, 3-(4-Amino-3-phenylsulfanyl-pyrazolo[3,4-d]pyrimidin-1-yl)-azetidine-1-carboxylic acid tert-butyl ester]
33 | 5 to 10 µM | > 15 µM | CC(C)(C)OC(=O)N1CC(n2nc(Oc3ccccc3)c3c(N)ncnc32)C1 [Compound No. 341, 3-(4-Amino-3-phenoxy-pyrazolo[3,4-d]pyrimidin-1-yl)-azetidine-1-carboxylic acid tert-butyl ester]
34 | – | > 15 µM | CCn1nc([S+]([O-])c2cccc(Br)c2)c2c(N)ncnc21 (centres unmarked) [compound 392]
35 | – | > 15 µM | CC(C)N1CC(n2nc(Oc3cccc(Cl)c3)c3c(N)ncnc32)C1 [compound 402]
36 | – | > 15 µM | CCOC(=O)N1CC(n2nc(Oc3cccc(Cl)c3)c3c(N)ncnc32)C1 [compound 403]
37 | – | > 15 µM | CC(=O)N1CC(n2nc([S+]([O-])c3ccccc3)c3c(N)ncnc32)C1 (centres unmarked) [compound 404]
38 | – | > 15 µM | CCOC(=O)N1CC(n2nc([S+]([O-])c3ccccc3)c3c(N)ncnc32)C1 (centres unmarked) [compound 405]
39 | – | > 15 µM | Nc1ncnc2c1c(Sc1ccccc1)nn2C1CNC1 [compound 416]
40 | – | > 15 µM | Nc1ncnc2c1c(Oc1ccccc1)nn2C1CCNCC1 [compound 417]
41 | – | > 15 µM | Nc1ncnc2c1c([S+]([O-])c1cccc(Cl)c1)nn2C1CNC1 (centres unmarked) [compound 418]
42 | – | > 15 µM | CCNC(=O)N1CC(n2nc([S+]([O-])c3ccccc3)c3c(N)ncnc32)C1 (centres unmarked) [compound 419]
43 | – | > 15 µM | CC(=O)N1CCC(n2nc(Oc3ccccc3)c3c(N)ncnc32)CC1 [compound 420]
44 | – | > 15 µM | CCNC(=O)Nc1ncnc2c1c(Cc1cccc(Cl)c1)nn2C1CN(C(=O)NCC)C1 [compound 424]
